From US9382265B2, “Oxazolidone compound, preparing method and application thereof” (SHANGHAI INSTITUTE OF MATERIA MEDICA, CHINESE ACADEMY OF …, priority 2013, dated 2016)
Values belong to the compound of their own block, whether it stands above or below them.

Assays:
[1] = system: rabbit sodium citrate anticoagulant plasma; assay: In vitro anticoagulant activity: activated partial thromboplastin time (APTT); type: biochemical; details: compound concentration that prolonged the APTT time by 1 time vs blank control
Procedure: The experiment used […]-1 immunomagnetic single channel semi-automated blood coagulation analyzer to measure blood coagulation time. Principle: At 37° C., using Kaolin to activate factors □ and □; using cephalin (partial thromboplastin) to replace platelet factor 3; and in the presence of Ca^2+, the time needed for the coagulation of plasma which lacks of platelet is observed as activated partial thromboplastin time. This experiment is a screening test which is sensitive and commonly used for the endogenous blood coagulation system. Test method: To the rabbit sodium citrate anticoagulant plasma (3.8% sodium citrate, 1:9 mixture) were added various concentrations of the compounds to be tested. APTT reagents ([…], Beijing) were used to measure the […] activation time. The compound concentration that prolonged the APTT time by 1 time, when compared with the blank control, was recorded as APTT2, thereby evaluating the anticoagulant activity of the compounds. Rabbit sodium citrate anticoagulant plasma (3.8% sodium citrate plasma, 1:9 mixture) was purchased from Guangzhou Ruite Bio company; […]-1 immunomagnetic single channel semi-automated blood coagulation analyzer and […] blood coagulation 3-item reagents were purchased from Beijing […] instrument company. […] Each concentration of each sample was assayed in 3-6 duplicate wells, and the experiment was independently carried out for 2-3 times.

[2] = in vivo
Procedure: Healthy male SD rats, body weight 200-220 g, randomly divided into 6 groups with each group 3-4 rats, were administered with the subject compound via intragastric administration and intravenous injection, respectively.
The subject compound was prepared with 5% DMSO/5% Twain 80/90% saline into solution for administration.
The rats were fasted for 12 hrs before experiment, free water-drinking, and were all fed 2 h after administration. Blood sampling time and sample treatment:
intragastric administration: 0.25, 0.5, 1.0, 2.0, 3.0, 4.0, 6.0, 8.0, and 24 h after administration;
intravenous administration: 5 min, 0.25, 0.5, 1.0, 2.0, 4.0, 6.0, 8.0, and 24 h after administration.
At the time points defined above, 0.3 ml of venous blood was taken from the posterior venous plexus of rats to heparinized tubes, centrifuged at 11000 rpm for 5 mins to separate the plasma, which was then frozen at −20° C. in a refrigerator.

[3] = biological target: T1, human recombinant FXa (Homo sapiens, UniProt P00742); assay: FXa inhibitory activity assay (chromogenic substrate, 405 nm); type: biochemical; details: inhibitory activity on FXa, preincubated at 37° C. for 10 mins
T1 construct: purchased Calbiochem; host or cells: human plasma
Procedure: Experimental principle and method: FXa cuts the Arg carboxyl end in the substrate N-Z-D-Arg-Gly-Arg-pDA in vitro and releases p-nitrophenylamine which has specific absorption at 405 nm wavelength. The amount of the […] generated is determined at 405 nm to evaluate the activity of the compound to inhibit the human recombinant FXa in vitro.
Human plasma coagulation factor Xa was purchased from Calbiochem; the substrate N-Z-D-Arg-Gly-Arg-pDA was purchased from chromogenic. The subject compound, enzyme and the reaction buffer were mixed and preincubated at 37° C. for 10 mins. The substrate was added. The absorption at 405 nm wavelength was measured continuously over 20 mins. At the same time, a blank control group (without enzyme, 100% inhibition rate) and a negative control group (replace the subject compound with DMSO, 0% inhibition rate) were set up. The reaction system was 100 μl (50 μl of Tris buffer, 10 μl of compound, 20 μl (0.027 U/ml) of enzyme, 20 μl (300 μM) of substrate). Each concentration of each sample was assayed in triplicate. The experiment was carried out for 2 times independently.

[4] = system: thrombus formation; assay: In vivo anticoagulant activity: electrically induced carotid artery thrombus formation time; parameters: species or system rat; details: for ED50: Rattus norvegicus, po, male SD rats, intragastric administration, 3 mA electrical stimulation of left common carotid artery 1 h after administration, read-out: ED50 for prolonging the thrombus formation time
Procedure: The rats were fasted for 12 h, then weighted, and treated by intragastric administration. After 45 min, the rats were anesthetized with chloral hydrate (350 mg/kg), immobilized, and the left common carotid artery was exposed by surgery. The artery and the surrounding tissue were separated by plastic wrap. Electrical stimulation was started 1 h after intragastric administration. The stimulation electrode of the BT87-4 tester for experimental in vivo thrombus formation was placed at the end of the blood vessels proximal to the heart. 3 mA current was used for a 2 min of stimulation. The instrument started the timer automatically when the stimulation began. The stimulation switch was turned off when the stimulation ended. The stimulation electrode was removed, and a thermostat probe was placed at the end of the artery on the stimulation site, which end is distal to the heart. At the time of 600 seconds, the pointer of the thermostat panel was slowly moved to the position of 0. The time from the start of simulation to the alarm of the instrument was recorded as the time of blood vessel blockage (or the time of thrombus formation). If a drug has antithrombosis effect, the time of thrombus formation (time of blood vessel blockage) will be prolonged. IBM SPSS Statistics 20 software was used for the t test of the experimental data.

[5] = system: rabbit sodium citrate anticoagulant plasma; assay: In vitro anticoagulant activity: prothrombin time (PT); type: biochemical; details: compound concentration that prolonged the PT time by 1 time vs blank control
Procedure: The experiment used […]-1 immunomagnetic single channel semi-automated blood coagulation analyzer to measure blood coagulation time. Principle: An excessive amount of tissue thromboplastin (infusion of preparations such as human brain, rabbit brain, placenta, and lung tissue) and calcium ion are added to the plasma to be tested, thereby converting prothrombin into thrombin, and the latter converts fibrinogen into fibrin. The time needed for plasma coagulation is observed as prothrombin time. This experiment is the most commonly used screening test for the evaluation of an extrinsic coagulation system. Test method: To the rabbit sodium citrate anticoagulant plasma (3.8% sodium citrate, 1:9 mixture) were added various concentrations of the compounds to be tested. PT reagents ([…], Beijing) were used to measure the prothrombin activation time. The compound concentration that prolonged the PT time by 1 time, when compared with the blank control, was recorded as PT2, thereby evaluating the anticoagulant activity of the compounds. Rabbit sodium citrate anticoagulant plasma (3.8% sodium citrate plasma, 1:9 mixture) was purchased from Guangzhou Ruite Bio company; […]-1 immunomagnetic single channel semi-automated blood coagulation analyzer and […] blood coagulation 3-item reagents were purchased from Beijing […] instrument company. […] Each concentration of each sample was assayed in 3-6 duplicate wells, and the experiment was independently carried out for 2-3 times.

[6] = male, SD, rat, in vivo, iv, 3 mg/kg
[7] = male, SD, rat, in vivo, po, 10 mg/kg
[8] = male, SD, rat, in vivo, iv, 4.5 mg/kg
[9] = male, SD, rat, in vivo, po, 9 mg/kg

T1 sequence (P00742 235-488 limits assumed): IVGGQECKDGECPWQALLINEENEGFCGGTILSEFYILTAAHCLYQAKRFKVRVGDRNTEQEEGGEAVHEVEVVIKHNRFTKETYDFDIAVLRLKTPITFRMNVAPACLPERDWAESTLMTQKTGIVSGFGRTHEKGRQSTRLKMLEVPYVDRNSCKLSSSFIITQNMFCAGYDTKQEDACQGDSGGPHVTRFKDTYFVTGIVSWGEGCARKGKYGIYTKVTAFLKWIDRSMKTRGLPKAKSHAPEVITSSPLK
T1 sequence (P00742 41-179 partner limits assumed): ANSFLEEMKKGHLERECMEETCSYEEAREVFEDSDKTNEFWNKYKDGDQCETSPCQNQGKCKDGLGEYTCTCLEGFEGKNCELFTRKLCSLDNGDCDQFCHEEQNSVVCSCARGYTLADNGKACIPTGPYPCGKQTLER

SMILES: O=C(NC[C@@H]1OC(=O)N2c3ccc(N4CCOCC4=O)cc3OC[C@@H]12)c1ccc(Cl)s1 [Compound 1, 5-chloro-N-(((3S,3aS)-1-oxo-7-(3-oxomorpholin-4-yl)-1,3,3a,4-tetrahydrobenzo[b]oxazolo[3,4-d][1,4]oxazin-3-yl)methyl)thiophene-2-carboxamide]
APTT2 [1]: 0.141 µM
F ([2]; male, SD, rat, in vivo): 63.7%
CLz [2, 6]: 3.35 mL/min/kg
MRT [2, 6]: 1.03 h
T1/2 [2, 6]: 1.00 h
Vss [2, 6]: 0.201 L/kg
Cmax [2, 7]: 11901 ng/mL
MRT [2, 7]: 2.23 h
T1/2 [2, 7]: 1.33 h
Tmax [2, 7]: 0.75 h
AUC0-t ([2]; rat, in vivo, iv, 3 mg/kg): 15324 ngh/mL
AUC0-∞ ([2]; rat, in vivo, iv, 3 mg/kg): 15339 ngh/mL
AUC0-t ([2]; rat, in vivo, po, 10 mg/kg): 32529 ngh/mL
AUC0-∞ ([2]; rat, in vivo, po, 10 mg/kg): 33044 ngh/mL
IC50 [3]: 2.25 ± 0.01 nM
ED50 [4]: 2.97 mg/kg
activity relative to rivaroxaban ([4]; ratio of ED50s for prolonging thrombus formation time, rats): 1.53 times
PT2 [5]: 0.184 µM

SMILES: NS(=O)(=O)c1ccccc1-c1ccc2c(c1)OC[C@H]1[C@H](CNC(=O)c3ccc(Cl)s3)OC(=O)N21 [Compound 35, 5-chloro-N-(((3S,3aS)-1-oxo-7-(2-aminosulfonylphenyl)-1,3,3a,4-tetrahydrobenzo[b]oxazolo[3,4-d][1,4]oxazin-3-yl)methyl)thiophene-2-carboxamide]
IC50 [3]: 19.6 ± 16.9 nM

SMILES: CS(=O)(=O)c1ccccc1-c1ccc2c(c1)OC[C@H]1[C@H](CNC(=O)c3ccc(Cl)s3)OC(=O)N21 [Compound 36, 5-chloro-N-(((3S,3aS)-7-(2-(methylsulfonyl)phenyl)-1-oxo-1,3,3a,4-tetrahydrobenzo[b]oxazolo[3,4-d][1,4]oxazin-3-yl)methyl)thiophene-2-carboxamide]
IC50 [3]: 12.2 ± 4.08 nM

SMILES: O=C(NC[C@H]1CN(c2ccc(N3CCOCC3=O)cc2)C(=O)O1)c1ccc(Cl)s1 [rivaroxaban, reference compound]
APTT2 [1]: 0.315 µM
F ([2]; male, SD, rat, in vivo): 4.6%
CLz [2, 6]: 4.75 mL/min/kg
MRT [2, 6]: 0.88 h
Vd [2, 6]: 0.25 L/kg
half-life [2, 6]: 0.98 h
Cmax [2, 7]: 440 ng/mL
MRT [2, 7]: 7.01 h
Tmax [2, 7]: 0.56 h
half-life [2, 7]: 4.64 h
AUC0-t ([2]; rat, in vivo, iv, 3 mg/kg): 10548 ngh/mL
AUC0-∞ ([2]; rat, in vivo, iv, 3 mg/kg): 10575 ngh/mL
AUC0-t ([2]; rat, in vivo, po, 10 mg/kg): 1608 ngh/mL
AUC0-∞ ([2]; rat, in vivo, po, 10 mg/kg): 2242 ngh/mL
ED50 [4]: 4.53 mg/kg
PT2 [5]: 0.399 µM

Further lines, with some results ahead:

F ([2]; male, SD, rat, in vivo): 42.0%
CLz [2, 8]: 2.28 mL/min/kg
MRT [2, 8]: 3.04 h
Vss [2, 8]: 0.406 L/kg
Cmax [2, 9]: 6927 ng/mL
MRT [2, 9]: 3.4 h
Tmax [2, 9]: 0.67 h
AUC0-t ([2]; rat, in vivo, iv, 4.5 mg/kg): 31057 ngh/mL
AUC0-∞ ([2]; rat, in vivo, iv, 4.5 mg/kg): 33562 ngh/mL
AUC0-t ([2]; rat, in vivo, po, 9 mg/kg): 26119 ngh/mL
AUC0-∞ ([2]; rat, in vivo, po, 9 mg/kg): 28527 ngh/mL
T1/2 ([2]; rats, intravenous injection (4.5 mg/Kg)): 1.95 h
T1/2 ([2]; rats, oral administration (9 mg/Kg)): 2.10 h
SMILES: O=C(NC[C@@H]1OC(=O)N2c3ccc(N4CCCCC4=O)cc3OC[C@@H]12)c1ccc(Cl)s1 [Compound 2, 5-chloro-N-(((3S,3aS)-1-oxo-7-(2-oxopiperidin-1-yl)-1,3,3a,4-tetrahydrobenzo[b]oxazolo[3,4-d][1,4]oxazin-3-yl)methyl)thiophene-2-carboxamide]
APTT2 [1]: 0.932 µM
PT2 [5]: 1.06 µM

IC50 [3]: 12.2 ± 10.5 nM
SMILES: O=C(NC[C@@H]1OC(=O)N2c3ccc(N4CCOCC4=O)cc3OC[C@@H]12)c1ccc(Cl)cc1 [Compound 17, 4-chloro-N-(((3S,3aS)-1-oxo-7-(3-oxomorpholin-4-yl)-1,3,3a,4-tetrahydrobenzo[b]oxazolo[3,4-d][1,4]oxazin-3-yl)methyl)benzamide]

IC50 [3]: 15 ± 1.6 nM
SMILES: O=C(NC[C@@H]1OC(=O)N2c3ccc(N4CC[C@@H](F)CC4=O)cc3OC[C@@H]12)c1ccc(Cl)s1 [Compound 33, 5-chloro-N-(((3S,3aS)-7-((R)-4-fluro-2-oxopiperidin-1-yl)-1-oxo-1,3,3a,4-tetrahydrobenzo[b]oxazolo[3,4-d][1,4]oxazin-3-yl)methyl)-thiophene-2-carboxamide]

IC50 [3]: 19.3 ± 3.39 nM
SMILES: O=C(NC[C@@H]1OC(=O)N2c3ccc(N4CC[C@H](F)CC4=O)cc3OC[C@@H]12)c1ccc(Cl)s1 [Compound 34, 5-chloro-N-(((3S,3aS)-7-((S)-4-fluro-2-oxopiperidin-1-yl)-1-oxo-1,3,3a,4-tetrahydrobenzo[b]oxazolo[3,4-d][1,4]oxazin-3-yl)methyl)-thiophene-2-carboxamide]
